# From PubChem BioAssay AID2060511 (Molecular Pharmacology Branch, DTP, NCI, 2025)
# Tested on: 422866-222-R5-J1-PDC spheroids with HUVEC/MSC, viability
# Assay: Anticancer human tumor 422866-222-R5-J1-PDC patient-derived pancreatic adenocarcinoma cell line growth inhibition [GQUAD]
# Conditions: for IC50: curve of first compound; for viability, T/C: stronger effect = lower value
# In short: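 Tumor cells were grown as complex spheroids with HUVEC endothelial cells and mesenchymal stem cells as stroma. G-quadruplex stabilizers were combined with targeted agents over half-log dilutions from near the clinical Cmax, or from 10 microM.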
# [1] = second compound 0.0316 µM, first compound 0.0316 µM
# [2] = second compound 0.0316 µM, first compound 0.1 µM
# [3] = second compound 0.0316 µM, first compound 0.316 µM
# [4] = second compound 0.0316 µM, first compound 1 µM
# [5] = second compound 0.0316 µM, first compound 3.16 µM
# [6] = second compound 0.0316 µM, first compound 10 µM
# [7] = second compound 0.1 µM, first compound 0.0316 µM
# [8] = second compound 0.1 µM, first compound 0.1 µM
# [9] = second compound 0.1 µM, first compound 0.316 µM
# [10] = second compound 0.1 µM, first compound 1 µM
# [11] = second compound 0.1 µM, first compound 3.16 µM
# [12] = second compound 0.1 µM, first compound 10 µM
# [13] = second compound 0.316 µM, first compound 0.0316 µM
# [14] = second compound 0.316 µM, first compound 0.1 µM
# [15] = second compound 0.316 µM, first compound 0.316 µM
# [16] = second compound 0.316 µM, first compound 1 µM
# [17] = second compound 0.316 µM, first compound 3.16 µM
# [18] = second compound 0.316 µM, first compound 10 µM
# [19] = second compound 1 µM, first compound 0.0316 µM
# [20] = second compound 1 µM, first compound 0.1 µM
# [21] = second compound 1 µM, first compound 0.316 µM
# [22] = second compound 1 µM, first compound 1 µM
# [23] = second compound 1 µM, first compound 3.16 µM
# [24] = second compound 1 µM, first compound 10 µM
# [25] = second compound 3.16 µM, first compound 0.0316 µM
# [26] = second compound 3.16 µM, first compound 0.1 µM
# [27] = second compound 3.16 µM, first compound 0.316 µM
# [28] = second compound 3.16 µM, first compound 1 µM
# [29] = second compound 3.16 µM, first compound 3.16 µM
# [30] = second compound 3.16 µM, first compound 10 µM
# [31] = second compound 10 µM, first compound 0.0316 µM
# [32] = second compound 10 µM, first compound 0.1 µM
# [33] = second compound 10 µM, first compound 0.316 µM
# [34] = second compound 10 µM, first compound 1 µM
# [35] = second compound 10 µM, first compound 3.16 µM
# [36] = second compound 10 µM, first compound 10 µM
# 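Further: spheroids exposed to compounds for seven days before reading.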
# 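Wherever viability, T/C is given: percent viability relative to DMSO vehicle control taken as 100%.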
structure (smiles),measurement,setting,value
C=CC(=O)N1CCN(c2nc(=O)n(-c3c(C)ccnc3C(C)C)c3nc(-c4c(O)cccc4F)c(F)cc23)C(C)C1 (stereo not drawn) + Cc1[nH]c2ccc(F)cc2c1-c1nc2c3cccnc3c3ncccc3c2[nH]1,IC50,second compound 0.0316 µM,< 31.6 nM
same,IC50,second compound 0.1 µM,< 31.6 nM
same,IC50,second compound 0.316 µM,< 31.6 nM
same,IC50,second compound 1 µM,< 31.6 nM
same,IC50,second compound 3.16 µM,< 31.6 nM
same,IC50,second compound 10 µM,< 31.6 nM
same,"viability, T/C",[1],43.8%
same,"viability, T/C",[2],32.5%
same,"viability, T/C",[3],25.1%
same,"viability, T/C",[4],28.4%
same,"viability, T/C",[5],29.4%
same,"viability, T/C",[6],28.1%
same,"viability, T/C",[7],41.1%
same,"viability, T/C",[8],33.6%
same,"viability, T/C",[9],24.9%
same,"viability, T/C",[10],26.5%
same,"viability, T/C",[11],29.1%
same,"viability, T/C",[12],31.7%
same,"viability, T/C",[13],44.1%
same,"viability, T/C",[14],29.1%
same,"viability, T/C",[15],24.8%
same,"viability, T/C",[16],24.1%
same,"viability, T/C",[17],30.1%
same,"viability, T/C",[18],29.8%
same,"viability, T/C",[19],38.1%
same,"viability, T/C",[20],30.4%
same,"viability, T/C",[21],26.8%
same,"viability, T/C",[22],25.3%
same,"viability, T/C",[23],28%
same,"viability, T/C",[24],30.9%
same,"viability, T/C",[25],32.6%
same,"viability, T/C",[26],27.4%
same,"viability, T/C",[27],25.8%
same,"viability, T/C",[28],27.5%
same,"viability, T/C",[29],28.8%
same,"viability, T/C",[30],25.7%
same,"viability, T/C",[31],27.2%
same,"viability, T/C",[32],29.6%
same,"viability, T/C",[33],26.3%
same,"viability, T/C",[34],26.3%
same,"viability, T/C",[35],28.1%
same,"viability, T/C",[36],27.9%
CC1COCCN1c1cc(C2(O)CC3CCC(C2)O3)c2cnn(-c3ccn[nH]3)c2n1 (stereo not drawn) + Cc1[nH]c2ccc(F)cc2c1-c1nc2c3cccnc3c3ncccc3c2[nH]1,IC50,second compound 0.0316 µM,31.6 nM
same,IC50,second compound 0.1 µM,> 10000 nM
same,IC50,second compound 0.316 µM,> 10000 nM
same,IC50,second compound 1 µM,> 10000 nM
same,IC50,second compound 3.16 µM,< 31.6 nM
same,IC50,second compound 10 µM,> 10000 nM
same,"viability, T/C",[1],74.6%
same,"viability, T/C",[2],47.4%
same,"viability, T/C",[3],48.1%
same,"viability, T/C",[4],48%
same,"viability, T/C",[5],87.5%
same,"viability, T/C",[6],92%
same,"viability, T/C",[7],73.3%
same,"viability, T/C",[8],55.9%
same,"viability, T/C",[9],42.1%
same,"viability, T/C",[10],62.2%
same,"viability, T/C",[11],88%
same,"viability, T/C",[12],90.3%
same,"viability, T/C",[13],85.4%
same,"viability, T/C",[14],52.6%
same,"viability, T/C",[15],37.4%
same,"viability, T/C",[16],79.1%
same,"viability, T/C",[17],97.1%
same,"viability, T/C",[18],109%
same,"viability, T/C",[19],70.4%
same,"viability, T/C",[20],39.1%
same,"viability, T/C",[21],44.1%
same,"viability, T/C",[22],79.9%
same,"viability, T/C",[23],98.2%
same,"viability, T/C",[24],114%
same,"viability, T/C",[25],51.7%
same,"viability, T/C",[26],43.8%
same,"viability, T/C",[27],49.8%
same,"viability, T/C",[28],82.9%
same,"viability, T/C",[29],90.8%
same,"viability, T/C",[30],90.8%
same,"viability, T/C",[31],54.7%
same,"viability, T/C",[32],47.8%
same,"viability, T/C",[33],51.2%
same,"viability, T/C",[34],85.4%
same,"viability, T/C",[35],84.5%
same,"viability, T/C",[36],90.8%
Cn1ncnc1[C@H]1c2n[nH]c(=O)c3cc(F)cc(c23)N[C@@H]1c1ccc(F)cc1 + Cc1[nH]c2ccc(F)cc2c1-c1nc2c3cccnc3c3ncccc3c2[nH]1,IC50,second compound 0.0316 µM,> 316 nM
same,IC50,second compound 0.1 µM,> 316 nM
same,IC50,second compound 0.316 µM,> 316 nM
same,IC50,second compound 1 µM,> 316 nM
same,IC50,second compound 3.16 µM,> 316 nM
same,IC50,second compound 10 µM,> 316 nM
same,"viability, T/C","second compound 0.0316 µM, first compound 0.000999 µM",92.4%
same,"viability, T/C","second compound 0.0316 µM, first compound 0.00316 µM",92.3%
same,"viability, T/C","second compound 0.0316 µM, first compound 0.00999 µM",105%
same,"viability, T/C",[1],91.8%
same,"viability, T/C","second compound 0.0316 µM, first compound 0.0999 µM",86.5%
same,"viability, T/C",[3],81.9%
same,"viability, T/C","second compound 0.1 µM, first compound 0.000999 µM",99.5%
same,"viability, T/C","second compound 0.1 µM, first compound 0.00316 µM",102%
same,"viability, T/C","second compound 0.1 µM, first compound 0.00999 µM",102%
same,"viability, T/C",[7],89.5%
same,"viability, T/C","second compound 0.1 µM, first compound 0.0999 µM",97.3%
same,"viability, T/C",[9],86.8%
same,"viability, T/C","second compound 0.316 µM, first compound 0.000999 µM",105%
same,"viability, T/C","second compound 0.316 µM, first compound 0.00316 µM",114%
same,"viability, T/C","second compound 0.316 µM, first compound 0.00999 µM",83.2%
same,"viability, T/C",[13],91.2%
same,"viability, T/C","second compound 0.316 µM, first compound 0.0999 µM",91.4%
same,"viability, T/C",[15],97.3%
same,"viability, T/C","second compound 1 µM, first compound 0.000999 µM",89.6%
same,"viability, T/C","second compound 1 µM, first compound 0.00316 µM",109%
same,"viability, T/C","second compound 1 µM, first compound 0.00999 µM",104%
same,"viability, T/C",[19],108%
same,"viability, T/C","second compound 1 µM, first compound 0.0999 µM",94.3%
same,"viability, T/C",[21],80.8%
same,"viability, T/C","second compound 3.16 µM, first compound 0.000999 µM",93.1%
same,"viability, T/C","second compound 3.16 µM, first compound 0.00316 µM",82.8%
same,"viability, T/C","second compound 3.16 µM, first compound 0.00999 µM",80.4%
same,"viability, T/C",[25],78.8%
same,"viability, T/C","second compound 3.16 µM, first compound 0.0999 µM",94.3%
same,"viability, T/C",[27],81.9%
same,"viability, T/C","second compound 10 µM, first compound 0.000999 µM",87.5%
same,"viability, T/C","second compound 10 µM, first compound 0.00316 µM",92.7%
same,"viability, T/C","second compound 10 µM, first compound 0.00999 µM",87%
same,"viability, T/C",[31],97.7%
same,"viability, T/C","second compound 10 µM, first compound 0.0999 µM",81.1%
same,"viability, T/C",[33],71.1%
O=C(c1cc(Cc2n[nH]c(=O)c3ccccc23)ccc1F)N1CCN(C(=O)C2CC2)CC1 + Cc1[nH]c2ccc(F)cc2c1-c1nc2c3cccnc3c3ncccc3c2[nH]1,IC50,second compound 0.0316 µM,> 10000 nM
same,IC50,second compound 0.1 µM,> 10000 nM
same,IC50,second compound 0.316 µM,> 10000 nM
same,IC50,second compound 1 µM,> 10000 nM
same,IC50,second compound 3.16 µM,> 10000 nM
same,IC50,second compound 10 µM,> 10000 nM
same,"viability, T/C",[1],99%
same,"viability, T/C",[2],87.9%
same,"viability, T/C",[3],91%
same,"viability, T/C",[4],77%
same,"viability, T/C",[5],83.1%
same,"viability, T/C",[6],65.6%
same,"viability, T/C",[7],102%
same,"viability, T/C",[8],85.1%
same,"viability, T/C",[9],86%
same,"viability, T/C",[10],89.2%
same,"viability, T/C",[11],93%
same,"viability, T/C",[12],81.4%
same,"viability, T/C",[13],104%
same,"viability, T/C",[14],83.9%
same,"viability, T/C",[15],90.6%
same,"viability, T/C",[16],72.8%
same,"viability, T/C",[17],87.4%
same,"viability, T/C",[18],79.7%
same,"viability, T/C",[19],89.9%
same,"viability, T/C",[20],100%
same,"viability, T/C",[21],89.2%
same,"viability, T/C",[22],88.7%
same,"viability, T/C",[23],94.7%
same,"viability, T/C",[24],83.6%
same,"viability, T/C",[25],79.4%
same,"viability, T/C",[26],83.5%
same,"viability, T/C",[27],75.4%
same,"viability, T/C",[28],100%
same,"viability, T/C",[29],81.7%
same,"viability, T/C",[30],79.6%
same,"viability, T/C",[31],66.6%
same,"viability, T/C",[32],70.8%
same,"viability, T/C",[33],81.2%
same,"viability, T/C",[34],64.2%
same,"viability, T/C",[35],85.9%
same,"viability, T/C",[36],77.7%
